Experimental data taken from publication PMC5000642 (International Journal of Molecular Sciences, 2016).
Each block holds one compound with its values, some of them ahead of it. Where a SMILES comes first, the peptide text is derived from it. [ ]: non-standard residue; d: D form.

Assays:
[1] = target: T1, endothelin A receptor (ETAR) (Homo sapiens, UniProt P25101); assay: Calcium mobilization (Fluo-4) antagonist assay in HEK293/ETAR cells evoked by […] ET-1; selective over ETB, A1, AT1 and PAR1 cell lines; assay type: cell-based
T1 construct: gene EDNRA
T1 sequence (P25101 21-427): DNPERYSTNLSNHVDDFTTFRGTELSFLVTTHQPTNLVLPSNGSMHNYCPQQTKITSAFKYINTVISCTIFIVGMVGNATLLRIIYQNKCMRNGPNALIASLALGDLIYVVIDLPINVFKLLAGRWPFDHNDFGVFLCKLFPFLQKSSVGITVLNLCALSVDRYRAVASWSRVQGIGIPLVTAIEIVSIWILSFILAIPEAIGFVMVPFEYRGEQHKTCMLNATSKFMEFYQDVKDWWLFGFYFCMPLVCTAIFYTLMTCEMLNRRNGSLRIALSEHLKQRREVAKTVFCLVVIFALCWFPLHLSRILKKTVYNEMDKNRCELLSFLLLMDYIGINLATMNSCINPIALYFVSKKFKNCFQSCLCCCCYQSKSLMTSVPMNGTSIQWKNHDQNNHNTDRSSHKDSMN

[2] = target: T1, endothelin A receptor (ETAR); assay: Calcium mobilization antagonist assay in HEK293/ETAR cells evoked by […] ET-1 (cell line validation); assay type: cell-based
[3] = target: T2, proteinase-activated receptor 1 (PAR1) (Homo sapiens, UniProt P25116); assay: cell-based; design: species or system HEK293; calcium mobilization assay in HEK293 cells stably expressing the human GPCR, agonist response
T2 construct: gene F2R; stably expressed in HEK293
T2 sequence (P25116 1-425): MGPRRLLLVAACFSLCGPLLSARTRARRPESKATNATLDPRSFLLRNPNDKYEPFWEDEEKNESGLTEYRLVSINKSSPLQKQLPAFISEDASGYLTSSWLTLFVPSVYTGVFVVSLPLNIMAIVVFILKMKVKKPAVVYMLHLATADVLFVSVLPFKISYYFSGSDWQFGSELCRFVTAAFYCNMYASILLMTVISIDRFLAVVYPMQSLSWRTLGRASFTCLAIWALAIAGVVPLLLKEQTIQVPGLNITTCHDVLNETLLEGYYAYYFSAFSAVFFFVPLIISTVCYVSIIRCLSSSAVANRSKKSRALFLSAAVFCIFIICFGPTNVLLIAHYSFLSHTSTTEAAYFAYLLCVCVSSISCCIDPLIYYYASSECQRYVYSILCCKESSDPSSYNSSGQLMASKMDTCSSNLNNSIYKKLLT
Description: To acquire the antagonist dose response, we tested the inhibitory effects of Sal A at different concentrations in the HEK293/ETAR cell line with 20 nM ET-1 stimulating. […] To omit a potential false positive, the cytotoxicity was tested in the HEK293/ETAR cell line by ATP CellTiter-Glo assay. In brief, Sal A was incubated in HEK293/ETAR cells for 30 min before luminescence signal measurement. […] The selectivity of Sal A was further assessed by calcium influx assay on 5 GPCRs. […] All cell lines were developed by standard procedures. Sal A was tested at a final concentration of 10 µM when cells were challenged with their selective agonists for antagonist identification. The selective antagonists of specific cell lines were used as positive control (Table S1). The HEK293 cell line was set up as the naïve group, and cells were challenged with 10 µM ATP as an agonist. […] The Gαq pathway is involved in ETAR activation, which increases intracellular Ca^2+. Based on this characteristic, a cell-based calcium mobilization assay has been used to study the function of GPCR and Ca^2+-permeable ion channels by measuring the changes of intracellular free Ca^2+ levels. In our previous study, recombinant ETAR in HEK293 cells was developed according to standard procedures. The utility of the cell line was validated using ETAR agonist (ET-1) and antagonist (BQ-123). […]

- IC50 [1]: 5700 nM
Structure (SMILES): O=C(/C=C/c1ccc(O)c(O)c1/C=C/c1ccc(O)c(O)c1)O[C@H](Cc1ccc(O)c(O)c1)C(=O)O [Sal A, Salvianolic acid A]

Structure (SMILES): CC(C)C[C@@H]1NC(=O)[C@@H](C(C)C)NC(=O)[C@@H]2CCCN2C(=O)[C@@H](CC(=O)O)NC(=O)[C@@H](Cc2c[nH]c3ccccc23)NC1=O [BQ-123] (cyclo(L[dW][dD]P[dV]))
- IC50 [2]: 0.1 nM

- EC50 [3]: 890 nM
Structure (SMILES): CC(C)C[C@H](NC(=O)[C@H](CC(C)C)NC(=O)[C@H](Cc1ccccc1)NC(=O)[C@@H](N)CO)C(=O)N[C@@H](CCCN=C(N)N)C(=O)N[C@@H](CC(N)=O)C(=O)O [TRAP-6]
